From US20220071952A1, “METHODS OF TREATING AND PREVENTING HEPATOTOXICITY” (Natreon, Inc., priority 2020, published 2022)

What was measured:
[1] = tested on: alcohol-induced hepatotoxicity in mice; assay: Alcohol (ethanol)-induced hepatotoxicity in mice, biochemical and physical parameters (Example III); assay type: in vivo, Swiss Albino mice; conditions: for Relative organ weight (w.r.t body weight) Kidney / Relative organ weight (w.r.t body weight) Liver / ACP / ALP / ALT(SGPT) / AST(SGOT) / Total Protein: 10 mg/kg p.o. + alcohol 5 g/kg p.o. twice daily, mean ± SD; for ACP / ALP / ALT(SGPT) / AST(SGOT) / Total Protein: plasma
Protocol: (§1) Swiss Albino male and female mice weighing approximately 30±5 g, 2 month old mice were obtained from National Research Institute of Ayurveda for Drug Development (Govt. of India), Kolkata, and were housed in polypropylene cages at 22±3° C., relative air humidity of 45 to 55%, with 12.00 hr light & dark cycle (lighting on from 6:00 AM to 6:00 PM). Mice were provided a standard pellet chow diet (carbohydrate 65.5%, protein 17.6%, fat 6.6%) and distilled water ad libitum. The mice were acclimatized for one week in the laboratory conditions, before being used in the experiment. All experiments were conducted between 10.00 hr and 14.00 hr. Principles of laboratory animals care (NIH publication no. 85-23, revised 1985) were followed.
In the present study simultaneous administration of alcohol (ethanol) and treatment with 3-OH-DBP and 3,8-(OH)2-DBP was done.
(§2) Vehicle control animals (“Con Veh”) were administered 0.3% CMC orally for 15 days.
(§3) Animals receiving ethanol (“Alc+0.3 CMC”, “3-OH-DBP+Alc”, “3,8-(OH)2-DBP+Alc”) were administered ethanol in 0.3% CMC orally as discussed above.
(§4) Results were expressed in terms of mean±SD (n=8). The data were subjected to one way ANOVA followed by Tukey's test using GraphPad Prism 4.0 software to establish statistical significance (*p<0.05, **p<0.01, ***p<0.001 vs. vehicle control; # p<0.05, ## p<0.01, ### p<0.001 vs. animals administered ethanol only).

[2] = Body weight, food intake and water intake during alcohol-induced hepatotoxicity study (Example III); assay type: in vivo, Swiss Albino mice; conditions: for change in body weight / change in food intake / change in water intake: 10 mg/kg p.o. + alcohol, 15 days; for body weight / food intake / water intake: 10 mg/kg p.o. + alcohol 5 g/kg p.o. twice daily, mean ± SD
Protocol: as §1, §2, §3, §4

[3] = tested on: CCl4-induced hepatotoxicity in mice; assay: Synergistic hepatoprotective activity of DBPs against CCl4-induced hepatotoxicity (Example IV); conditions: for ACP / ALP / ALT / AST / Total Protein: CCl4 1 ml/kg, mean ± SEM, n=4
[4] = tested on: alcohol-induced hepatotoxicity in mice; assay: Synergistic hepatoprotective activity of DBPs against alcohol-induced hepatotoxicity (Example IV); conditions: for ACP / ALP / ALT / AST / Total Protein: alcohol 5 g/kg, mean ± SEM, n=4
Protocol: Hepatotoxicity was induced by oral administration of alcohol (ethanol: 5 g/kg) from stock 400 mg/ml twice daily for 15 days.
3-OH-DBP and 3,8-(OH)2-DBP were each separately suspended in 0.3% CMC and administered at a dose of 10 mg/kg body weight per orally for 15 days. During the 15 days treatment, body weight, food intake, and water intake were monitored at regular intervals. Following 15 days of treatment physical parameters (relative organ weight) and biochemical parameters (plasma total protein content, ALT, AST, ALP, and ACP) were studied.
3-OH-DBP (2 mg/kg body weight, 10 mg/kg body weight);
3,8-(OH)2-DBP (10 mg/kg body weight, 50 mg/kg body weight); and

[5] = female mice (Table 14), 10 mg/kg p.o.
[6] = male mice (Table 13), 10 mg/kg p.o.
[7] = female mice, doses 3-OH-DBP 2, 3,8-(OH)2-DBP 10, 1:5 combination 12 mg/kg b.w.
[8] = female mice, doses 3-OH-DBP 10, 3,8-(OH)2-DBP 50, 1:5 combination 60 mg/kg b.w.
[9] = male mice, doses 3-OH-DBP 2, 3,8-(OH)2-DBP 10, 1:5 combination 12 mg/kg b.w.
[10] = male mice, doses 3-OH-DBP 10, 3,8-(OH)2-DBP 50, 1:5 combination 60 mg/kg b.w.
[11] = female mice, doses 3-OH-DBP 2, 3,8-(OH)2-DBP 10, combination 12 mg/kg b.w.

Compound: O=c1oc2cc(O)ccc2c2ccc(O)cc12 [3,8-(OH)2-DBP, 3,8-dihydroxy-dibenzo-alpha-pyrone]
- hepatoprotective activity against alcohol-induced hepatotoxicity ([1]; 10 mg/kg p.o., 15 days): significant hepatoprotective activity
- effect on alcohol-induced increased plasma ACP [1, 5]: significantly (p<0.05) attenuated
- effect on alcohol-induced increased plasma ALT [1, 5]: significantly (p<0.001) attenuated
- effect on alcohol-induced increased plasma AST [1, 5]: significantly (p<0.05; p<0.01) attenuated
- effect on plasma ALP level compared with ALC group [1, 5]: did not show significant (p>0.05) change
- Relative organ weight (w.r.t body weight) Kidney ([1]; female mice, 15 days): 0.012 ± 0.001
- Relative organ weight (w.r.t body weight) Liver ([1]; female mice, 15 days): 0.048 ± 0.001
- ACP ([1]; female mice, 15 days): 4.31 ± 2.84^## IU/L
- ALP ([1]; female mice, 15 days): 43.12 ± 5.84 IU/L
- ALT(SGPT) ([1]; female mice, 15 days): 6.72 ± 0.727^## IU/L
- AST(SGOT) ([1]; female mice, 15 days): 3.62 ± 1.27^## IU/L
- Total Protein ([1]; female mice, 15 days): 3.229 ± 0.187 g/dL
- effect on alcohol-induced increased plasma ACP [1, 6]: significantly (p<0.05) attenuated
- effect on alcohol-induced increased plasma ALT [1, 6]: significantly (p<0.05) attenuated
- effect on alcohol-induced increased plasma AST [1, 6]: significantly (p<0.05) attenuated
- Relative organ weight (w.r.t body weight) Kidney ([1]; male mice, 15 days): 0.016 ± 0.002
- Relative organ weight (w.r.t body weight) Liver ([1]; male mice, 15 days): 0.044 ± 0.005
- ACP ([1]; male mice, 15 days): 4.29 ± 1.22^## IU/L
- ALP ([1]; male mice, 15 days): 27.39 ± 6.15 ^ IU/L
- ALT(SGPT) ([1]; male mice, 15 days): 9.98 ± 3.44^# IU/L
- AST(SGOT) ([1]; male mice, 15 days): 4.51 ± 1.80^# IU/L
- Total Protein ([1]; male mice, 15 days): 3.229 ± 0.187^ g/dl
- change in body weight ([2]; female mice): No significant change
- change in food intake ([2]; female mice): No significant change
- change in water intake ([2]; female mice): No significant change
- body weight ([2]; female mice, Day 0): 25.17 ± 2.32 gm
- food intake ([2]; female mice, Day 0): 8.52 ± 0.30 gm
- water intake ([2]; female mice, Day 0): 4 ± 0.28 mL
- body weight ([2]; female mice, Day 5): 23.5 ± 3.02 gm
- food intake ([2]; female mice, Day 5): 8.78 ± 1.02 gm
- water intake ([2]; female mice, Day 5): 4.01 ± 0.26 mL
- body weight ([2]; female mice, Day 10): 23.67 ± 3.07 gm
- food intake ([2]; female mice, Day 10): 16.44 ± 0.47 gm
- water intake ([2]; female mice, Day 10): 2.32 ± 0.46 mL
- body weight ([2]; female mice, Day 15): 22.83 ± 2.78 gm
- food intake ([2]; female mice, Day 15): 16.12 ± 0.66 gm
- water intake ([2]; female mice, Day 15): 2.15 ± 0.44 mL
- change in body weight ([2]; male mice): No significant change
- change in food intake ([2]; male mice): No significant change
- change in water intake ([2]; male mice): No significant change
- body weight ([2]; male mice, Day 0): 29.17 ± 2.79 gm
- food intake ([2]; male mice, Day 0): 17.01 ± 0.75 gm
- water intake ([2]; male mice, Day 0): 4.92 ± 0.45 mL
- body weight ([2]; male mice, Day 5): 25 ± 3.29 gm
- food intake ([2]; male mice, Day 5): 17.18 ± 0.85 gm
- water intake ([2]; male mice, Day 5): 5.07 ± 0.61 mL
- body weight ([2]; male mice, Day 10): 25.67 ± 2.66 gm
- food intake ([2]; male mice, Day 10): 17.21 ± 1.11 gm
- water intake ([2]; male mice, Day 10): 2.32 ± 0.31 mL
- body weight ([2]; male mice, Day 15): 24.8 ± 2.93 gm
- food intake ([2]; male mice, Day 15): 17.23 ± 1.16 gm
- water intake ([2]; male mice, Day 15): 2.27 ± 0.33 mL
- hepatoprotective activity (conclusion, Tables 19 and 20) ([3]; CCl4-induced hepatotoxicity, male and female mice): hepatoprotective activity in a dose dependent manner
- ACP [3, 7]: 48 ± 4 (c) U/L
- ALP [3, 7]: 89 ± 5.1 (c) IU/L
- ALT [3, 7]: 68 ± 6.5 (c) IU/L
- AST [3, 7]: 57 ± 8 (c) ^ IU/L
- Total Protein [3, 7]: 4.9 ± 0.21 g/dL
- ACP [3, 8]: 28 ± 5.1 (f) U/L
- ALP [3, 8]: 68 ± 8 (f) ^ IU/L
- ALT [3, 8]: 62 ± 3.6 (f) IU/L
- AST [3, 8]: 41 ± 14^###(f) IU/L
- Total Protein [3, 8]: 6.6 ± 0.16 g/dL
- ACP, difference in values from CCl4 treated mice [3, 7]: B = (a-c = 32) U/L
- ALP, difference in values from CCl4 treated mice [3, 7]: B = (a-c = 1) IU/L
- ALT, difference in values from CCl4 treated mice [3, 7]: B = (a-c = 19) IU/L
- AST, difference in values from CCl4 treated mice [3, 7]: B = (a-c = 48) IU/L
- ACP, difference in values from CCl4 treated mice [3, 8]: E = (a-f = 52) U/L
- ALP, difference in values from CCl4 treated mice [3, 8]: E = (a-f = 22) IU/L
- ALT, difference in values from CCl4 treated mice [3, 8]: E = (a-f = 25) IU/L
- AST, difference in values from CCl4 treated mice [3, 8]: E = (a-f = 64) IU/L
- ACP [3, 9]: 48 ± 7.2***,#(c) U/L
- ALP [3, 9]: 89 ± 5.1*,,#(c) IU/L
- ALT [3, 9]: 68 ± 5.1 (c) IU/L
- AST [3, 9]: 70 ± 4.4##(c) IU/L
- Total Protein [3, 9]: 6.3 ± 0.36 g/dL
- ACP [3, 10]: 46 ± 2.5 (f)^ U/L
- ALP [3, 10]: 68 ± 8##(f) ^ IU/L
- ALT [3, 10]: 60 ± 2.5 (f) IU/L
- AST [3, 10]: 58 ± 1.9###(f)^ IU/L
- Total Protein [3, 10]: 6 ± 0.40 g/dL
- Relative liver weight ([3]; male mice, CCl4 study of Example IV): significantly increased
- ACP, difference in values from CCl4 treated mice [3, 9]: B = (a-c = 38) U/L
- ALP, difference in values from CCl4 treated mice [3, 9]: B = (a-c = 53) IU/L
- ALT, difference in values from CCl4 treated mice [3, 9]: B = (a-c = 12) IU/L
- AST, difference in values from CCl4 treated mice [3, 9]: B = (a-c = 33) IU/L
- ACP, difference in values from CCl4 treated mice [3, 10]: E = (a-f = 20) U/L
- ALP, difference in values from CCl4 treated mice [3, 10]: E = (a-f = 74) IU/L
- ALT, difference in values from CCl4 treated mice [3, 10]: E = (a-f = 20) IU/L
- AST, difference in values from CCl4 treated mice [3, 10]: E = (a-f = 45) IU/L
- hepatoprotective activity (conclusion, Tables 17 and 18) ([4]; alcohol-induced hepatotoxicity, male and female mice): hepatoprotective activity in a dose dependent manner
- ACP [4, 11]: 15.6 ± 0.99 U/L
- ALP [4, 11]: 84 ± 6.5 (c) IU/L
- ALT [4, 11]: 45.80 ± 5.76 (c)^ IU/L
- AST [4, 11]: 64.09 ± 7.34 (c)^ IU/L
- Total Protein [4, 11]: 6.53 ± 0.10 g/dL
- Relative liver weight ([4]; female mice, alcohol study of Example IV): significantly decreased
- ACP, difference in values from alcohol treated mice [4, 11]: (c) B = (a-c = 5.67) U/L
- ALP, difference in values from alcohol treated mice [4, 11]: B = (a-c = 55.35) IU/L
- ALT, difference in values from alcohol treated mice [4, 11]: B = (a-c = 43.04) IU/L
- AST, difference in values from alcohol treated mice [4, 11]: B = (a-c = 4.9) IU/L
- ACP [4, 9]: 11.2 ± 1.44 (c) U/L
- ALP [4, 9]: 88.1 ± 15.8 (c) IU/L
- ALT [4, 9]: 53.9 ± 3.99 (c) IU/L
- AST [4, 9]: 25.6 ± 3.10 (c) IU/L
- Total Protein [4, 9]: 7.65 ± 0.34 g/dL
- ACP [4, 10]: 9.19 ± 0.71 (f)^ U/L
- ALP [4, 10]: 78 ± 7.21 (f) IU/L
- ALT [4, 10]: 64.3 ± 2(f) ^ IU/L
- AST [4, 10]: 24.8 ± 2.19 (f) IU/L
- Total Protein [4, 10]: 8.60 ± 0.35 g/dL
- ACP, difference in values from alcohol treated mice [4, 9]: B = (a-c = 7.4) U/L
- ALP, difference in values from alcohol treated mice [4, 9]: B = (a-c = 45.9) IU/L
- ALT, difference in values from alcohol treated mice [4, 9]: B = (a-c = 52.1) IU/L
- AST, difference in values from alcohol treated mice [4, 9]: B = (a-c = 35.1) IU/L
- ACP, difference in values from alcohol treated mice [4, 10]: E = (a-f = 9.41) U/L
- ALP, difference in values from alcohol treated mice [4, 10]: E = (a-f = 56) IU/L
- ALT, difference in values from alcohol treated mice [4, 10]: E = (a-f = 41.7) IU/L
- AST, difference in values from alcohol treated mice [4, 10]: E = (a-f = 35.9) IU/L
